Laboratory results reported in paper PMC3335078, “Length and Amino Acid Sequence of Peptides Substituted for the 5-HT3A Receptor M3M4 Loop May Affect Channel Expression and Desensitization” (PLoS ONE, 2012).

How the values were obtained:
[1] = biological target: T1, 5-HT3A-A2 (M3M4 loop replaced by two alanines) (Mus musculus, UniProt P23979, DELINS338-452AA); assay: Two-electrode voltage clamp, oocytes expressing 5-HT3A-A2; assay type: cell-based
T1 construct: expressed in transfected cells; host or cells: Xenopus laevis oocytes injected with mRNA
T1 sequence (P23979 with tags, fused parts or gaps isoform P23979-2 DELINS338-452AA limits assumed): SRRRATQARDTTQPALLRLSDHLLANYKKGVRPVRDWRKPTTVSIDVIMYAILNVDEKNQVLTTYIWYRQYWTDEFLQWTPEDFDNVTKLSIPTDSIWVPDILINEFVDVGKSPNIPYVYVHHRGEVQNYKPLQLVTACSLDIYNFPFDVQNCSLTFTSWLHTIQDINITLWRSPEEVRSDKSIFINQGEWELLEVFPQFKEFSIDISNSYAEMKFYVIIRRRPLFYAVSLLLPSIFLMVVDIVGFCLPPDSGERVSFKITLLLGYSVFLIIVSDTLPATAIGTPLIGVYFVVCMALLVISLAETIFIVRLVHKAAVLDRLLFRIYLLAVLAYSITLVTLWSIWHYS
From the text: (§1) The mouse 5-HT3A cDNA with an N-terminal V5 epitope tag was cloned into the pXOON vector as previously described, and is referred to in this paper as “wild-type” (WT). The starting construct for all of the M3M4 loop replacement constructs used in this work was the 5-HT3A-ΔM3M4 construct formed by splicing the cytoplasmic end of M3 (M3-LVHK/QDLQRP…) to the cytoplasmic end of M4 (…WLRVGY/VLDRLL-M4). The splice was made at the site of the “/” to yield the sequence M3-LVHK/VLDRLL-M4 [34]. This removed 115 residues predicted to form the M3M4 loop.
(§2) The construction of the 5-HT3A-glvM3M4 chimera with the 5-HT3A M3M4 loop replaced by the GLIC heptapeptide M3M4 loop (SQPARAA) was described previously. Point mutations, alanine and Gly-Ser-Ala insertions into the 5-HT3A-ΔM3M4 construct were generated with the Quikchange site directed mutagenesis procedure (Stratagene, La Jolla, CA). The entire coding region of all mutant constructs was verified by DNA sequencing (Albert Einstein College of Medicine DNA Sequencing Facility). The pXOON plasmid was linearized using NheI and capped mRNA prepared with T7 RNA polymerase (mMessage mMachine, Ambion, Austin, TX).
(§3) Use of Xenopus laevis in this study was carried out in strict accordance with the recommendations in the Guide for the Care and Use of Laboratory Animals of the National Institutes of Health. The protocol was approved by the Albert Einstein College of Medicine Animal Care and Use Committee (Protocol Number: 20081201). All surgery was performed under tricaine anesthesia, and all efforts were made to minimize suffering. Oocyctes were harvested from Xenopus (Nasco Science, Fort Atkinson, WI) anesthetized with 0.15% tricaine. Oocyctes were defolliculated by incubation in 2 mg ml^−1 Type 1A collagenase (Sigma-Aldrich, St. Louis, MO) in OR2 (85 mM NaCl, 2 mM KCl, 1 mM MgCl2, and 5 mM HEPES; pH adjusted to 7.5 with NaOH) for a 60 or 75 min. Oocytes were washed in OR2 and stored at 16°C in SOS medium: 100 mM NaCl, 2 mM KCl, 1 mM MgCl2, 1.8 mM CaCl2 5 mM HEPES, pH 7.5 with 100 IU ml^−1 penicillin, 100 µg ml^−1 streptomycin, and 250 ng ml^−1 amphotericin B (Invitrogen, Carlsbad, CA) and 5% horse serum (Sigma-Aldrich). 24 hrs following isolation, oocyctes were injected with 23 nl (2.3 ng) of mRNA and were kept in SOS media for 2–5 d at 16°C.
(§4) Currents were recorded under two-electrode voltage clamp from oocytes 2–5 d post-injection as described previously. […] The perfusion chamber volume was 200 µl. […]
(§5) Desensitization rates were determined by fitting a single exponential decay function to the current data with Prism 4 software (GraphPad Software). Significant differences compared with wild-type were determined by a one-way ANOVA (p<0.05) using Dunnett's multiple comparison post-hoc test (p<0.05). […]

[2] = biological target: T2, 5-HT3A-A1 (M3M4 loop replaced by one alanine) (Mus musculus, UniProt P23979, DELINS338-452A); assay: Two-electrode voltage clamp, oocytes expressing 5-HT3A-A1; assay type: cell-based
T2 construct: expressed in transfected cells; host or cells: Xenopus laevis oocytes injected with mRNA
T2 sequence (P23979 with tags, fused parts or gaps isoform P23979-2 DELINS338-452A limits assumed): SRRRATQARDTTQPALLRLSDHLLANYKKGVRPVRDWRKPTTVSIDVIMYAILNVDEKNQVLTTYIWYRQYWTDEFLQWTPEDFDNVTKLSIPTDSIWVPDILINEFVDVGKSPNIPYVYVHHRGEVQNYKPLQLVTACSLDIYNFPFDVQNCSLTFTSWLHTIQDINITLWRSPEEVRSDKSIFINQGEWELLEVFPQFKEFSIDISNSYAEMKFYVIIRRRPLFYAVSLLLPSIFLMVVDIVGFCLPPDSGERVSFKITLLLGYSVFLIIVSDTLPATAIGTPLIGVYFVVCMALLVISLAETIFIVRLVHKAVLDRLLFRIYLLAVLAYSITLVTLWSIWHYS
From the text: as §1, §2, §3, §4, §5

[3] = biological target: T3, 5-HT3A M3M4 loop SQPAARA construct (Mus musculus, UniProt P23979); assay: Two-electrode voltage clamp, oocytes expressing SQPAARA loop construct; assay type: cell-based; settings: 10 µM 5-HT, Xenopus oocytes
T3 construct: expressed in transfected cells; host or cells: Xenopus laevis oocytes injected with mRNA
T3 sequence (P23979 with tags, fused parts or gaps): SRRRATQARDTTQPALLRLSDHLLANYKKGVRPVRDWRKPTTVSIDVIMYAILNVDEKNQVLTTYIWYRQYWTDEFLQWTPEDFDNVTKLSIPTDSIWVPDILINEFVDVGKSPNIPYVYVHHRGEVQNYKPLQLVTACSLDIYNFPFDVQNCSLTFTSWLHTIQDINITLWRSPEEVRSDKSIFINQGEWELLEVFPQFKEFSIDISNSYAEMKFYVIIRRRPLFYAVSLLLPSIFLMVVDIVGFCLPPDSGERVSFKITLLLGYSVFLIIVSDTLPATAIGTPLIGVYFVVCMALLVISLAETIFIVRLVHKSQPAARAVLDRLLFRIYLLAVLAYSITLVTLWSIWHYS
From the text: as §1
The construction of the 5-HT3A-glvM3M4 chimera with the 5-HT3A M3M4 loop replaced by the GLIC heptapeptide M3M4 loop (SQPARAA) was described previously. Point mutations, alanine and Gly-Ser-Ala insertions into the 5-HT3A-ΔM3M4 construct were generated with the Quikchange site directed mutagenesis procedure (Stratagene, La Jolla, CA). […]
Currents were recorded under two-electrode voltage clamp from oocytes 2–5 d post-injection as described previously. […]
as §5

[4] = biological target: T4, 5-HT3A-A5 (Mus musculus, UniProt P23979); assay: Radioactive 5-HT binding to oocytes expressing 5-HT3A-A5; settings: 150 nM [3H]5-HT + 10 µM 5-HT, 5 min, 45 s cold wash
T4 construct: expressed in transfected cells; host or cells: Xenopus laevis oocytes injected with mRNA
T4 sequence (P23979 with tags, fused parts or gaps isoform P23979-2 limits assumed): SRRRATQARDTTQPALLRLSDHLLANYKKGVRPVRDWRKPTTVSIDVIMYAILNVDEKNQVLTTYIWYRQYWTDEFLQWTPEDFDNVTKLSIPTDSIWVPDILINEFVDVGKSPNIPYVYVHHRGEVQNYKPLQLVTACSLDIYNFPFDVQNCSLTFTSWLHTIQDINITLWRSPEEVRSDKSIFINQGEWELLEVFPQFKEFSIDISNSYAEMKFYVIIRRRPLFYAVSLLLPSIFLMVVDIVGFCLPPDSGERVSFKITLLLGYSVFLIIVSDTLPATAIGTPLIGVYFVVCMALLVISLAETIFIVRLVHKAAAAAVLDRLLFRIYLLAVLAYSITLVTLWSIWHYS
Experimental: Assays were terminated by five washes with ice cold CFFR buffer, followed by solubilization of the oocytes individually with 200 µl 5% SDS. Total wash time was 45 s. […] All data points represent the average of at least fifteen individual oocytes derived from three separate oocyte isolations.
To determine the extent of non-specific binding, all binding experiments were performed in parallel with diethylpyrocarbonate-(DEPC)-treated-water injected oocytes or uninjected oocytes.

NCCc1c[nH]c2ccc(O)cc12 [5-HT, 5-hydroxytryptamine]
nH (Hill coefficient) [1]: 2.0±0.3
10–90% Activation rise time ([1]; 10 µM 5-HT): 617 ± 32 ms
Imax (peak current) ([1]; 10 µM 5-HT, Xenopus oocytes, -60 mV): 6900±260 nA
Desensitization time constant τ ([1]; prolonged 10 µM 5-HT): 43 ± 4 s
10–90% Activation rise time ([2]; 10 µM 5-HT): 1055 ± 17 ms
Desensitization time constant τ ([2]; initial 10 µM 5-HT application, may be limited by solution exchange): 7 ± 1 s
Imax (peak current) ([2]; initial application of 10 µM 5-HT, Xenopus oocytes, -60 mV): 1800±380 nA
Current induced by subsequent 5-HT application ([2]; subsequent 5-HT application 360 s later): 159±5 nA
Peak current [3]: 320±25 nA
Radiolabeled 5-HT bound per oocyte [4]: 0.40±0.03 pmol per oocyte
